The text below walks through data of ChEMBL document CHEMBL5154722, “Identification of new potent anticancer derivatives through simplifying the core structure and modification on their 14- hydroxyl group from oridonin” (Eur J Med Chem, 2022).

In data set [1] the test system is MDA-MB-231. The data set is described as follows: Potency index, ratio of IC50 for oridonin to IC50 for test compound for antiproliferative activity against MDA-MB-231 cells. Type of data set: functional, Homo sapiens.
The subject of data set [2] is MCF7. The data set can be described thus: Antiproliferative activity against human MCF7 cells assessed as reduction in cell viability incubated for 72 hrs by MTT assay. The note with it: MCF7, 72 h. Type of data set: functional, cell-based.
For data set [3], the system named is SMMC-7721. The data set can be described thus: Antiproliferative activity against human […] cells assessed as reduction in cell viability incubated for 72 hrs by MTT assay. Type of data set: functional, cell-based. The note with it: SMMC-7721, 72 h. For orientation: Tetrazolium assays rely on reduction of a dye to a coloured formazan, in cell work by metabolically active cells.

The test system of data set [4] is SMMC-7721. The data set can be described thus: Potency index, ratio of IC50 for oridonin to IC50 for test compound for antiproliferative activity against SMMC-7721 cells. Type of data set: functional, Homo sapiens.
For data set [5], the system named is K562. The data set is described as follows: Antiproliferative activity against human K562 cells assessed as reduction in cell viability incubated for 72 hrs by MTT assay. Type of data set: functional, cell-based. The note with it: K562, 72 h.
Data set [6] relates to MDA-MB-231. The data set can be described thus: Antiproliferative activity against human MDA-MB-231 cells assessed as reduction in cell viability incubated for 72 hrs by MTT assay. The note with it: MDA-MB-231, 72 h. Type of data set: functional, cell-based.
Data set [7] deals with MCF7. The data set is described as follows: Potency index, ratio of IC50 for oridonin to IC50 for test compound for antiproliferative activity against MCF7 cells. Type of data set: functional, Homo sapiens.
The test system of data set [8] is K562. The data set can be described thus: Potency index, ratio of IC50 for oridonin to IC50 for test compound for antiproliferative activity against K562 cells. Type of data set: functional, Homo sapiens.
Data set [9] is described as follows: Antiproliferative activity against human U-87 MG cells assessed as reduction in cell viability incubated for 72 hrs by MTT assay. Type of data set: functional, cell-based, U-87MG ATCC.
In data set [10] the test system is H22. The data set is described as follows: Antitumor activity against mouse H22 cells allografted in ICR mouse assessed as reduction in tumor volume at 20 mg/kg, iv administered once a day for 21 days after 7 days of tumor implantation measured every two days. Type of data set: functional, organism-based. The note with it: time 21.0 day.
A further data set has as its system SW480. The data set is described as follows: Antiproliferative activity against human SW480 cells assessed as reduction in cell viability incubated for 72 hrs by MTT assay. Type of data set: functional, cell-based. Particulars: SW480, 72 h.
Data set [11] can be described thus: Selectivity index, ratio of IC50 for human L02 cells to IC50 for human SMMC-7721 cells. Type of data set: toxicity. Particulars: L02 cells and SMMC-7721 cells, read-out: Ratio IC50.
For the next data set, the system named is MGC-803. The data set is described as follows: Antiproliferative activity against human MGC-803 cells assessed as reduction in cell viability incubated for 72 hrs by MTT assay. Type of data set: functional, cell-based. The note with it: MGC-803, 72 h.
Data set [12] can be described thus: Cytotoxicity against human L02 cells assessed as reduction in cell viability incubated for 72 hrs by MTT assay. Type of data set: toxicity, cell-based.
For another data set, the system named is HeLa. The data set can be described thus: Antiproliferative activity against human HeLa cells assessed as reduction in cell viability incubated for 72 hrs by MTT assay. Type of data set: functional, cell-based.
Data set [13] is described as follows: Toxicity in ICR mouse allografted with mouse H22 cells assessed as change in body weight at 20 mg/kg, iv administered once a day for 21 days after 7 days of tumor implantation measured every two days. Type of data set: organism-based. Particulars: in vivo, 504 h, time 21 day.
The subject of data set [14] is H22. The data set is described as follows: Antitumor activity against mouse H22 cells allografted in ICR mouse assessed as reduction in tumor weight at 20 mg/kg, iv administered once a day for 21 days after 7 days of tumor implantation. Type of data set: functional. Also on record: scale not given: the % may be the effect or the level left. The note with it: time 21 day.

The subject of data set [15] is H22. The data set can be described thus: Antiproliferative activity against mouse H22 cells assessed as reduction in cell viability incubated for 72 hrs by MTT assay. Type of data set: functional, cell-based. Particulars: H22, 72 h.
A short description of data set [16]: Toxicity in ICR mouse allografted with mouse H22 cells assessed as reduction in body weight at 8 mg/kg, iv administered every two days for 21 days after 7 days of tumor implantation measured every two days. Type of data set: organism-based. Particulars: in vivo, 504 h, time 21 day.
Data set [17] concerns H22. The data set is described as follows: Antitumor activity against mouse H22 cells allografted in ICR mouse assessed as reduction in tumor weight at 8 mg/kg, iv administered every two days for 21 days after 7 days of tumor implantation. Type of data set: functional. Also on record: scale not given: the % may be the effect or the level left. Particulars: time 21 day.

Molecules are shown by their SMILES. Activity calls are given as the source filed them. The rule behind the calls is not given here.

Turning to `C=C1C(=O)[C@@]23C(=O)C[C@@H]4C(C)(C)CCC[C@@]4(COC(C)=O)[C@@H]2CC[C@@H]1[C@H]3OC(C)=O`, the “Ratio IC50” value in the data set on MDA-MB-231 [1] was 6.9; in the data set on SMMC-7721 [4], 6.2; in the data set with MCF7 [7], 8.5; with K562 [8] it was 4. Further, the IC50 was found to be 1300 nM in the data set with MCF7 [2], 2090 nM with SMMC-7721 [3], 990 nM with K562 [5] and 1670 nM in the data set with MDA-MB-231 [6].

Take `C=C1C(=O)[C@]23[C@H](OC(=O)/C=C/c4ccncc4)[C@H]1CC[C@H]2[C@]12CCCC(C)(C)[C@H]1C[C@@]3(O)OC2`: the IC50 in [9] was found to be 900 nM; in the data set with MCF7 [2] it was 710 nM; with SW480, 800 nM; in the data set on SMMC-7721 [3], 770 nM; in the data set on MGC-803 it was 960 nM; in the data set with K562 [5] it was 340 nM. The IC50 stood at 720 nM in the data set with MDA-MB-231 [6], 940 nM in the data set with HeLa and 780 nM with H22 [15]. In addition, the result in the data set with H22 [10] was Active. Moreover, the selectivity ratio in [11] is 6.79. Also, the IC50 at 72 h in [12] was 5240 nM. Besides, the Activity entry in [13] is on record as “Non-Toxic”; in the data set on H22 [14], 52.34%.

With `C=C1C(=O)[C@]23[C@H](O)[C@H]1CC[C@H]2[C@@]12CO[C@]3(O)[C@@H](O)[C@@H]1C(C)(C)CC[C@@H]2O` [ORIDONIN], the IC50 worked out at 14000 nM in [9]; 11100 nM in the data set on MCF7 [2]; 11600 nM with SW480; 12600 nM in the data set with SMMC-7721 [3]; 15100 nM in the data set with MGC-803; 11600 nM with MDA-MB-231 [6]. In addition, the IC50 was found to be 17300 nM in the data set on HeLa and 4880 nM with H22 [15]. For the same compound, the selectivity ratio in data set [11] is 2.73. Also, the IC50 at 72 h in data set [12] turned out to be 34300 nM.

Take `C=C1C(=O)[C@]23[C@H](OC(=O)/C=C/c4ccncc4)[C@H]1CC[C@H]2[C@]12C=CCC(C)(C)[C@H]1[C@H](O)[C@@]3(O)OC2`: the IC50 in [9] was determined as 1160 nM; with MCF7 [2], 1310 nM; in the data set with SW480, 1110 nM; in the data set on SMMC-7721 [3], 350 nM; in the data set with MGC-803, 1150 nM; in the data set with K562 [5], 210 nM. For the same compound, the IC50 with MDA-MB-231 [6] was found to be 640 nM; in the data set on HeLa, 970 nM; with H22 [15], 360 nM. In addition, the result in the data set with H22 [10] was Active. Moreover, the selectivity ratio in [11] came to 17.7. The IC50 at 72 h in data set [12] was determined as 6230 nM. For the same compound, the Activity result in data set [13] is reported as “Non-Toxic”; in the data set with H22 [14], 56.76%.

`CC(=O)O[C@H]1C(=O)[C@@]2(C)[C@H]([C@H](OC(=O)c3ccccc3)[C@]3(O)C[C@H](OC(=O)[C@H](O)[C@@H](NC(=O)c4ccccc4)c4ccccc4)C(C)=C1C3(C)C)[C@]1(OC(C)=O)CO[C@@H]1C[C@@H]2O` [PACLITAXEL]: the Activity entry is listed as “Toxic” in [16] and 90.39% in the data set with H22 [17].

For orientation: IC50 means the concentration needed to halve the response being measured.
